Consider 1 compound from US4575497A, “3, 3", 4"-Tri-O-acylspiramycin I” (Kyowa Hakko Kogyo Co., Ltd, priority 1983, dated 1986).

The experiment relates to Streptococcus pneumoniae Type III. Nature of the experiment: Healing effect on test infection in mice, ED50 (Reference Example 1). The experiment is classed as in vivo. The following applies: oral, 0.3% CMC, just after i.p. inoculation; Probit method, survived animals on the 7th day. The text has this:
Comparison of healing effects of acetylspiramycin and 3, 3", 4"-tri-O-acetylspiramycin I on test infection in mice
Animal : ddY-strain male mice, 19±lg, one group consisting of ten mice.
Test bacterium : Streptococcus pneumoniae Type III. Inoculation rate : 1.1×10^2 cfu/mouse.
The predetermined amount of the precultured test bacteria was inoculated via i.p..
Medicament administration : Each of the medicaments was suspended in 0.3% CMC, and orally administered just after the inoculation of bacteria.

For the compound `COC1C(OC(C)=O)CC(=O)OC(C)CC=CC=CC(OC2CCC(N(C)C)C(C)O2)C(C)CC(CC=O)C1OC1OC(C)C(OC2CC(C)(OC(C)=O)C(OC(C)=O)C(C)O2)C(N(C)C)C1O` (stereo not shown) [3, 3", 4"-tri-O-acetylspiramycin, 3, 3", 4"-tri-O-acetylspiramycin I], the 50% effective dose (ED50) amounted to 69.5 mg/kg.
